Measurements reported in ChEMBL document CHEMBL1201862, “PubChem BioAssay data set” (2004).
Active and inactive are the calls of the source.

Columns and labels:
Nonstructural protein 1 = Nonstructural protein 1 (Influenza A virus, UniProt Q194T2); type: functional, Influenza A virus (A/California/07/2009(H1N1))
[1] = target: T1, Endoribonuclease toxin MazF (Escherichia coli K-12, UniProt P0AE70); experiment: fluorescent RNA oligo signal without MazF, dose response, counter-screen for MazEF activator project, biochemical, fluorescence, single-stranded RNase substrate (AID 588502); type: functional
T1 sequence (P0AE70 whole entry): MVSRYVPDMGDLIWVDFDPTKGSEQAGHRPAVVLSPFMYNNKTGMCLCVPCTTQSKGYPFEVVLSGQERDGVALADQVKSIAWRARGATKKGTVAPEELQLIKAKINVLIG

[2] = target: T1, Endoribonuclease toxin MazF; experiment: MazF toxin RNase activators, dose response, biochemical, fluorescence, single-stranded RNA substrate, uHTS hits (AID 588481); type: functional
cells = type: functional, cell-based
[3] = target: T2, Heat shock factor protein 1 (Mus musculus, UniProt P38532); experiment: inhibition of MG132-induced HSE-luciferase signal, confirmation, cell-based, NIH3T3, luminescence, dose retest (AID 2382); type: functional;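 further: NIH3T3 fibroblasts with HSF1-driven luciferase reporter stressed by proteasome inhibitor MG132; luminescence from HSF1-driven luciferase expression after 8 hours of MG132 stress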
T2 sequence (P38532 whole entry): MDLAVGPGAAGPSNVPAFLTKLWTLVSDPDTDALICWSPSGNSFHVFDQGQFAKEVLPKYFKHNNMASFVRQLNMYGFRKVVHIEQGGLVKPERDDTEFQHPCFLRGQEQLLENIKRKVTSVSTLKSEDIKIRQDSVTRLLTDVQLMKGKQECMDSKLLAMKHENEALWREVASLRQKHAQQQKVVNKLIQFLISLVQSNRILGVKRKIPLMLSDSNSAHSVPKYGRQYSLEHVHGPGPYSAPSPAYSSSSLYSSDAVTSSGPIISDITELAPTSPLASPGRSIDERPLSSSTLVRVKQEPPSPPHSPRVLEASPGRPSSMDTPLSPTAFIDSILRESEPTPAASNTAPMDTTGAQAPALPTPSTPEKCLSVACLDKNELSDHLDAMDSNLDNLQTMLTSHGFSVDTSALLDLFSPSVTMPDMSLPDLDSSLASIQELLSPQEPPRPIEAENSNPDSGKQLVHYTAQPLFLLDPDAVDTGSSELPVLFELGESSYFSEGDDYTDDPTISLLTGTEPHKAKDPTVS

[4] = target: T3, Short transient receptor potential channel 4 (Mus musculus, UniProt Q9QUQ5); experiment: mouse TRPC4 channel inhibitors, dose response, cell-based, HEK293 TRPC4/mu-opioid, Fluo-4 calcium (AID 434942); type: functional;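 further: potency of inhibitors blocking the TRPC4 calcium response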
T3 sequence (Q9QUQ5 whole entry): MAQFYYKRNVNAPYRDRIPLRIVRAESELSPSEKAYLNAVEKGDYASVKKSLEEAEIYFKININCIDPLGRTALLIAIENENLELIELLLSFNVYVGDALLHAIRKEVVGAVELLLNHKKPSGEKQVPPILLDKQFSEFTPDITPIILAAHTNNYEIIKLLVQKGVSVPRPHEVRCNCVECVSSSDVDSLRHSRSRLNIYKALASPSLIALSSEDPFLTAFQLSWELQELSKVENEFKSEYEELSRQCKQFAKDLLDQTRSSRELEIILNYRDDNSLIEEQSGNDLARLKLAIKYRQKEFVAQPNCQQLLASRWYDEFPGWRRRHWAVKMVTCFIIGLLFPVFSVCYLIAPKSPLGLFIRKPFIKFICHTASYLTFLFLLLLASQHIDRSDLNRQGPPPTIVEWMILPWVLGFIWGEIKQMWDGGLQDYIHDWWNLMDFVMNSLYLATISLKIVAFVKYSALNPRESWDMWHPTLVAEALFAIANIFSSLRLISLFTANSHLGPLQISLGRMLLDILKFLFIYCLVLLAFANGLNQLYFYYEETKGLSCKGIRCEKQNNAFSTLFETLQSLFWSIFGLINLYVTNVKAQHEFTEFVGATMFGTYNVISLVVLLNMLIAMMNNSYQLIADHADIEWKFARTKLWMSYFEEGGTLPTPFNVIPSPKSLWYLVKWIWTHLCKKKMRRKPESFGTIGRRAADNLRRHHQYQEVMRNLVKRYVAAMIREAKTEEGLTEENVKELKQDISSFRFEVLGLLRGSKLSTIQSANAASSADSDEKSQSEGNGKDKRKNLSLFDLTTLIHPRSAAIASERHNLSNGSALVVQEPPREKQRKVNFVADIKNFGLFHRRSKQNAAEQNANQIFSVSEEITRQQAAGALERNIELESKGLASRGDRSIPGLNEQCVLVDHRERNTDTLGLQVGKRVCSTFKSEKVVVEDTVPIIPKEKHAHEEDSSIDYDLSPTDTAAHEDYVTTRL

Protein skinhead-1 = target: T4, Protein skinhead-1 (Caenorhabditis elegans, UniProt P34707); type: functional
T4 sequence (P34707 whole entry): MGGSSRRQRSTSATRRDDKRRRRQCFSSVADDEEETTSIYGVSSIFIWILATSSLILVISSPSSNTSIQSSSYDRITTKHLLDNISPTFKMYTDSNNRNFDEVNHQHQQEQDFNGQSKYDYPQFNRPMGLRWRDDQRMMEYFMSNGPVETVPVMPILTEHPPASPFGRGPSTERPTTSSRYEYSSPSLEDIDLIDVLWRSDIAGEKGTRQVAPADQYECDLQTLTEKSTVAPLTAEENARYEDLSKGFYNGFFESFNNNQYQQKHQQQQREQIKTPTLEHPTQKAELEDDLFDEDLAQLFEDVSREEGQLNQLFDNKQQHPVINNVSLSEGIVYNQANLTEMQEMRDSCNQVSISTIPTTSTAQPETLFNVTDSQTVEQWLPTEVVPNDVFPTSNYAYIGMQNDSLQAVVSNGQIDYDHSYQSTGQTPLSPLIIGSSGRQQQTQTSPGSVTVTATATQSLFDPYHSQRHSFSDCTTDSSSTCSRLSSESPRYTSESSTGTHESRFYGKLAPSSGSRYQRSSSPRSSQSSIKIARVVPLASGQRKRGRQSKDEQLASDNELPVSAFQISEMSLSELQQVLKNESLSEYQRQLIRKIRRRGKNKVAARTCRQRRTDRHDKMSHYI

[5] = target: T5, Corticotropin-releasing factor receptor 2/Corticotropin-releasing factor-binding protein (Homo sapiens, UniProt P24387+Q13324); experiment: activators of CRF receptor 2 with binding protein – uHTS hits, confirmation (AID 602473); type: functional; settings: read-out: EC50_Mean
T5 sequence (Q13324 whole entry): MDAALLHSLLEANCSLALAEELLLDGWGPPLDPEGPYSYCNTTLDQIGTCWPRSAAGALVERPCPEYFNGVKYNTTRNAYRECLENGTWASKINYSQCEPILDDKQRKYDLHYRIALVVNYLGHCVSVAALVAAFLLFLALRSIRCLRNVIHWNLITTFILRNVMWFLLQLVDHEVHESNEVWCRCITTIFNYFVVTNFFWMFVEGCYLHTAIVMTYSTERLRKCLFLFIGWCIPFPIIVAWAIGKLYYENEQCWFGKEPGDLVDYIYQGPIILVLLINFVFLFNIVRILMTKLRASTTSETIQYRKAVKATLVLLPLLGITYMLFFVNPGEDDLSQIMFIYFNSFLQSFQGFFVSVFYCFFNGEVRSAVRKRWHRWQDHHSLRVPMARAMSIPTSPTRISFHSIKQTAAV
T5 sequence (P24387 whole entry): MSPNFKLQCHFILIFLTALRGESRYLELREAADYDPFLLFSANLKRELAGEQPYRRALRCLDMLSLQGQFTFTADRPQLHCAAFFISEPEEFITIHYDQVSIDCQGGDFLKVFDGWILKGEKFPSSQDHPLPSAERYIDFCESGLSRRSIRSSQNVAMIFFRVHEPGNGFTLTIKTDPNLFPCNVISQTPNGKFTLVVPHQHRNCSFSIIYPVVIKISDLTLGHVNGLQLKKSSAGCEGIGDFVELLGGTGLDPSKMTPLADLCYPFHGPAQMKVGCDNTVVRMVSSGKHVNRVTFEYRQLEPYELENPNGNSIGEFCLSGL

Cytochrome P450 3A4 = Cytochrome P450 3A4 (Homo sapiens, UniProt P08684);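 further: CYP3A4 tested as one member of a cytochrome P450 panel screen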
Cytochrome P450 3A4, sequence (P08684 whole entry): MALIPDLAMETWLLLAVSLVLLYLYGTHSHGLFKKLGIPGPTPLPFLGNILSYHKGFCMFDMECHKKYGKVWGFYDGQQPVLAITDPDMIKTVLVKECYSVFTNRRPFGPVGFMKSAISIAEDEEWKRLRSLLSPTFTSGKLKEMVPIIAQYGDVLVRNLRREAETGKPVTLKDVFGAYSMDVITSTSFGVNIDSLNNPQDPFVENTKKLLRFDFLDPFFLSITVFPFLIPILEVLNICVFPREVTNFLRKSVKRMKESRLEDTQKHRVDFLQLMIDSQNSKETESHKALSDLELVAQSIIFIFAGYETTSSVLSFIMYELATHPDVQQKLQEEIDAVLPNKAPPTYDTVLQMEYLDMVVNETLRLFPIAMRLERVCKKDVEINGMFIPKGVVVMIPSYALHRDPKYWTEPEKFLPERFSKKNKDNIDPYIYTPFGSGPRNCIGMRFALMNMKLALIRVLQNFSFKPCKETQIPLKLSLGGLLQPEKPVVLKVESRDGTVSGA

[6] = CRF-BP/CRF-R2 complex antagonists, dose response, cell-based, uHTS hits, 384-well (AID 651639); type: functional, Homo sapiens; settings: read-out: IC50_Mean
[7] = target: T5, Corticotropin-releasing factor receptor 2/Corticotropin-releasing factor-binding protein; experiment: Dose Response confirmation of uHTS hits for small molecule antagonists of the CRF-binding protein and CRF-R2 receptor complex.; type: functional; settings: read-out: IC50_Mean
Vero = Vero cell cytotoxicity, cytotoxicity control for flavivirus capping enzyme inhibitors (AID 588742); type: functional; settings: Chlorocebus sabaeus
[8] = target: T6, Histone-lysine N-methyltransferase NSD2 (Homo sapiens, UniProt O96028); type: biochemical
T6 sequence (O96028 whole entry): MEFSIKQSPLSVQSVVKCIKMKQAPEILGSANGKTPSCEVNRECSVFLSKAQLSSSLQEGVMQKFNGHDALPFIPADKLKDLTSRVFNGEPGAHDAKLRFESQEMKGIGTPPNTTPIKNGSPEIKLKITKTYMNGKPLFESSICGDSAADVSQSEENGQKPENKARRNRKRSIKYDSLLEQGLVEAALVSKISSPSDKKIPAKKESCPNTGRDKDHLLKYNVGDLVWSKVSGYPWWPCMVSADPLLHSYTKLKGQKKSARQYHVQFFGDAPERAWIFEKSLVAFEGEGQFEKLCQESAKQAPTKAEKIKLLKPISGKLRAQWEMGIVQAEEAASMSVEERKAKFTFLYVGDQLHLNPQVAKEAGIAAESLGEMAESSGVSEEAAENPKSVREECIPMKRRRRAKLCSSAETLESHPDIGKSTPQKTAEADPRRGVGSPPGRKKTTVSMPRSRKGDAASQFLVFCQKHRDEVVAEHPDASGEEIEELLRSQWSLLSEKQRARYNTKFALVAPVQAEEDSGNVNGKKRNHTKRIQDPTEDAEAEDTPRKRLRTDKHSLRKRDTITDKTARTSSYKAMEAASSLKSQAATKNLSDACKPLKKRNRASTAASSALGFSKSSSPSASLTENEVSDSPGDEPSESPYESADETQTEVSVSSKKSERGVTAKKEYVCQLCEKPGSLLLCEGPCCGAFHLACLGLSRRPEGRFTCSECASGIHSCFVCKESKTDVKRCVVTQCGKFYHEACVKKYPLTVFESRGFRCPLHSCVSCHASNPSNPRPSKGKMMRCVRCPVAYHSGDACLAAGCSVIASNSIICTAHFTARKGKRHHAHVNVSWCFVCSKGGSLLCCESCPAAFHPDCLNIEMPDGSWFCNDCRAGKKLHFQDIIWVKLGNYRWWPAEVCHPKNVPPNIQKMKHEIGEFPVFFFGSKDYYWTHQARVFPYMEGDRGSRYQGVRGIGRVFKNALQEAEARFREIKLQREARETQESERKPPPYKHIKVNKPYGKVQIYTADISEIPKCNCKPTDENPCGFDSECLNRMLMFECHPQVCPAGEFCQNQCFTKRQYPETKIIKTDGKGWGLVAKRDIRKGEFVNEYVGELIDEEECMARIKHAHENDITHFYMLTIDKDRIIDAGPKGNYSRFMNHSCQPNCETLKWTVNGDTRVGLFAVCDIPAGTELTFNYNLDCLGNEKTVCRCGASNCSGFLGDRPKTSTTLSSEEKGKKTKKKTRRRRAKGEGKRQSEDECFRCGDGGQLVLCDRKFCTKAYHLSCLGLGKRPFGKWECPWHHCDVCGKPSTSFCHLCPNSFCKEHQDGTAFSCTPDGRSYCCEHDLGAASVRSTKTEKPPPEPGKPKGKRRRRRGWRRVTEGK

[9] = target: T7, Calpain-2 catalytic subunit (Sus scrofa, UniProt P43367); experiment: pig calpain II inhibitor potency, dose response, biochemical, fluorogenic peptide substrate (AID 1420); type: functional
T7 sequence (P43367 whole entry): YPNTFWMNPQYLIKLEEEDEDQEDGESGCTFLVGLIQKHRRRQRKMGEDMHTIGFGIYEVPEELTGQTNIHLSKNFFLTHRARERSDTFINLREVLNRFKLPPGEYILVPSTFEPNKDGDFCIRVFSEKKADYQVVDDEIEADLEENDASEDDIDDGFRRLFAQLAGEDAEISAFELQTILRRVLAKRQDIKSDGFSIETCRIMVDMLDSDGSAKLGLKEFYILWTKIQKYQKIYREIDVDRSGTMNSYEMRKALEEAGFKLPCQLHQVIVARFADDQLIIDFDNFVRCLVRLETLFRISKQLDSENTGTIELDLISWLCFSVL

Nonstructural protein 1, sequence (Q194T2 whole entry): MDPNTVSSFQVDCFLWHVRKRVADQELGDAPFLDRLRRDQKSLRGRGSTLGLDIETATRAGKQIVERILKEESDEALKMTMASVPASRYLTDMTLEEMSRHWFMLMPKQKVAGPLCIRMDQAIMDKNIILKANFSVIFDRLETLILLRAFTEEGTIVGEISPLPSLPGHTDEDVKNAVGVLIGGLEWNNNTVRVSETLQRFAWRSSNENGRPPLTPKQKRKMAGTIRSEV

SMILES: O=C1NC(=S)N(C2CC2)C(=O)/C1=C/NNC(=O)c1ccccc1O
- IC50 (Nonstructural protein 1): 16.2 µM (active)

SMILES: Cc1ccc2cc3c(N)c(C(=O)Nc4c(C)[nH]c(=O)[nH]c4=O)sc3nc2c1
- EC50 [1]: > 99 µM (inactive)
- EC50 [2]: > 99 µM (inactive)

SMILES: Cc1ccc(O)c(/C=N/NC(=O)CN2CCCC2)c1
- IC50 (Nonstructural protein 1): 15.3 µM (active)
- EC50 (cells): 104 µM (active)
- EC50 [3]: > 195 µM (not active)

SMILES: CC(=O)n1c(/C=N/c2ccc(Cl)cc2)c(O)c2ccccc21
- EC50 [1]: 31.1 µM (inactive)
- EC50 [2]: > 99 µM (inactive)

SMILES: Cc1cc([N+](=O)[O-])ccc1NCc1ccccc1
- EC50 [4]: 0.841 µM (active)
- IC50 (Protein skinhead-1): 66.9 µM (inactive)
- EC50 [5]: > 53 µM (inactive)
- AC50 (Cytochrome P450 3A4): 14.1 µM (inconclusive)
- IC50 [6]: 8.31 µM (active)
- IC50 [7]: 4.41 µM (active)

SMILES: CCOC(=O)C1=C(C)N=c2s/c(=C/c3cccc([N+](=O)[O-])c3O)c(=O)n2C1c1ccccc1 (centres undefined)
- CC50 (Vero): 31.1 µM (active)
- IC50 (Nonstructural protein 1): 22.1 µM (active)
- AC50 [8]: > 20 µM (inactive)

SMILES: Cc1nn(-c2ccccc2)c2c1C(c1ccc(Br)s1)C(C#N)=C(N)O2 (centres undefined)
- IC50 (Nonstructural protein 1): 76.2 µM (active)
- IC50 [9]: > 50 µM (not active)
